Measurements taken from patent publication US20200010479A1, “INHIBITORS OF MICROBIAL BETA-GLUCURONIDASE ENZYMES AND USES THEREOF” (THE UNIVERSITY OF NORTH CAROLINA AT CHAPEL HILL, priority 2017, published 2020).
Entries after “also recorded” stand apart in the source; their conditions may differ.

Assays:
C. perfringens GUS = C. perfringens GUS (Clostridium perfringens, UniProt Q8XP19); type: biochemical
E. coli GUS [1] = molecular target: T1, E. coli GUS (Escherichia coli, UniProt P05804); test: In vitro EcGUS inhibition, cleavage of PNPG by purified E. coli GUS; type: biochemical; settings: PNPG substrate, 37° C., 2 hours
T1 sequence (P05804 whole entry): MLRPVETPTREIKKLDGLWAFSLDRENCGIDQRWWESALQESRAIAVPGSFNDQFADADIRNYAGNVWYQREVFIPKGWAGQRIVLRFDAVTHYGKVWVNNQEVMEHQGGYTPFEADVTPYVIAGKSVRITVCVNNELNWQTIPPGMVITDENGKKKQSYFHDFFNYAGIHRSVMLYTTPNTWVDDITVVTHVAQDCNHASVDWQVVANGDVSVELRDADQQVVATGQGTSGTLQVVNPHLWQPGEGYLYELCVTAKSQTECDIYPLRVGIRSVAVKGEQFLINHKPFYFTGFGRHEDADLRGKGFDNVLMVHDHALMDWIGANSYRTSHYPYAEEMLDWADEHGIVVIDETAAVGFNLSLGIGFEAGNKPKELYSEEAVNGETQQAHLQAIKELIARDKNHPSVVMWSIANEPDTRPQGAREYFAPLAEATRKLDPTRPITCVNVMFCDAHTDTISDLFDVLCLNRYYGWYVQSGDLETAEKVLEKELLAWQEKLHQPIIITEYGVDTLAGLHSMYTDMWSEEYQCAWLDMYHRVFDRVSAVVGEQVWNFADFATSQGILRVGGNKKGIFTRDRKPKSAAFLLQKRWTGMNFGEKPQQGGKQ
Method: To assess GUS inhibition, cleavage of p-nitrophenyl-β-D-glucuronide (PNPG) by purified E. coli GUS in the presence of inhibitor was measured. The reaction was performed in 96-well clear-bottom plates at a volume of 50 μL. Each reaction contained 5 μL of 100 nM E. coli GUS, 5 μL of inhibitor at various concentrations, 10 μL of 250 mM HEPES and 250 mM NaCl assay buffer, and 30 μL of 1.5 mM PNPG. The reaction was initiated by addition of PNPG and incubated at 37° C. for 2 hours. End point absorbance values at 410 nm were measured using a PHERAstar Plus microplate reader. The resulting data were fit with a four-parameter logistic log function in SigmaPlot 13.0 to determine IC50 values. IC50 was defined as the concentration of inhibitor that yields a 50% reduction in product formation at equilibrium.

[2] = tested on: panel of purified GUS enzymes present in the human gut microbiota; test: SN-38-G processing by panel of purified GUS enzymes, with inhibitors; type: biochemical; settings: comparison of inhibitors over the panel
[3] = tested on: murine intestinal epithelium; test: Time-course of gut damage after a single treatment in FVB mice; type: in vivo, female FVB mice
Method: It has been previously reported that irinotecan induces apoptosis and reduces the number of mitotic structures in the rat intestinal epithelium (Takasuna 1996). To assess whether Inh9 impacts cell proliferation in the murine intestinal epithelium, we undertook two time-course studies. Four groups of age-, weight- and litter-matched female FVB mice were treated with a single treatment of vehicle, Inh9 (1 mg/kg p.o.), irinotecan (50 mg/kg i.p.) or irinotecan and Inh9. One set of animals were euthanized after 24 hours, and a second set after 120 hours. To assess overall effects on the animals, changes in body weight, spleen mass and hematocrit were measured. In the GI tract, levels of apoptotic cells and proliferative cells were measured and epithelial samples were examined by H&E staining.
Thus, at five days, Inh9 appears to protect this measure of animal health. […] As such, the protection afforded at 24 hours by Inh9 is sufficient to improve subsequent gut epithelial outcomes in mice several days after administration.

S. agalactiae GUS = molecular target: T2, S. agalactiae GUS (Streptococcus agalactiae serotype V, UniProt Q8E0N2); type: biochemical; settings: purified L1 enzyme, in vitro
T2 construct: made in house
T2 sequence (Q8E0N2 whole entry): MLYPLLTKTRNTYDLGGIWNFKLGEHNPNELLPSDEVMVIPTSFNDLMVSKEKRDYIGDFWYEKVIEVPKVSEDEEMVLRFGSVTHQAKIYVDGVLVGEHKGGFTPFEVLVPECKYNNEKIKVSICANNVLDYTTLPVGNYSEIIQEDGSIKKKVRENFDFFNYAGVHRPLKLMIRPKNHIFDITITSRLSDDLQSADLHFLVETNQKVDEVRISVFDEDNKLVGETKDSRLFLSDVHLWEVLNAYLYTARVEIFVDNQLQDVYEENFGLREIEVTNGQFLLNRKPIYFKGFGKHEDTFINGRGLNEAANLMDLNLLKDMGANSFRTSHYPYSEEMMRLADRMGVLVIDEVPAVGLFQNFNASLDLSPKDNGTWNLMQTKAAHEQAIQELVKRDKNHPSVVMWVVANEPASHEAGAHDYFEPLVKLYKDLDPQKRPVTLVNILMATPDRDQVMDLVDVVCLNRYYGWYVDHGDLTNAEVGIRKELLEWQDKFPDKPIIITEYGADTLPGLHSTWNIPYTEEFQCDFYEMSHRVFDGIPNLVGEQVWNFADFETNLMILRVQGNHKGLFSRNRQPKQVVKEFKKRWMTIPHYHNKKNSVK

[4] = tested on: gut microbial GUS proteins; test: SN-38-G processing by in fimo samples (enzyme mixtures from intestinal contents); type: biochemical, naïve FVB mice
Description: To examine the activity of a more relevant sample of gut microbial GUS proteins, intestinal contents from naïve FVB mice in SPF conditions were obtained. […] As used herein, the ex vivo intestinal samples examined scientifically are to be termed “in fimo” from “fimus”, used by […] and in formal Latin to mean “excrement”. […] FIGS. 14A and 14B). […] FIGS. 14A and 14B).

gut microbiota [5] = test: 16S rRNA metataxonomic analysis of luminal contents, athymic Sum149 xenograft mice; type: in vivo
Method: A metataxonomic analysis was performed of the luminal contents of athymic mice bearing Sum149 triple-negative breast cancer xenograft tumors by sequencing the V3-V4 region of the bacterial 16s rRNA gene. […] Gut microbial diversity is associated with animal and human health, while reduced diversity is associated with disease in both model organisms and humans (REFs). Thus, Inh9 blunts the negative effects of irinotecan on gut microbial diversity in athymic tumor xenograft mice, and is capable of increases species richness in these animals.
At the phylum level, the lumenal contents of vehicle-treated mice contained 50% Bacteroidetes, 42% Firmicutes, and 4% Proteobacteria (FIG. 22B). […] Thus, in immune-deficient mice, Inh9 markedly protects gut microbial composition in athymic mice, increasing diversity and reducing irinotecan-induced increases in Proteobacteria.

[6] = molecular target: T3, Mini-Loop 1 (mL1) GUS from Bacteroides fragilis (Bacteroides fragilis, UniProt Q5LIC7); type: biochemical; settings: purified mL1 enzyme, in vitro
T3 construct: made in house
T3 sequence (Q5LIC7 whole entry): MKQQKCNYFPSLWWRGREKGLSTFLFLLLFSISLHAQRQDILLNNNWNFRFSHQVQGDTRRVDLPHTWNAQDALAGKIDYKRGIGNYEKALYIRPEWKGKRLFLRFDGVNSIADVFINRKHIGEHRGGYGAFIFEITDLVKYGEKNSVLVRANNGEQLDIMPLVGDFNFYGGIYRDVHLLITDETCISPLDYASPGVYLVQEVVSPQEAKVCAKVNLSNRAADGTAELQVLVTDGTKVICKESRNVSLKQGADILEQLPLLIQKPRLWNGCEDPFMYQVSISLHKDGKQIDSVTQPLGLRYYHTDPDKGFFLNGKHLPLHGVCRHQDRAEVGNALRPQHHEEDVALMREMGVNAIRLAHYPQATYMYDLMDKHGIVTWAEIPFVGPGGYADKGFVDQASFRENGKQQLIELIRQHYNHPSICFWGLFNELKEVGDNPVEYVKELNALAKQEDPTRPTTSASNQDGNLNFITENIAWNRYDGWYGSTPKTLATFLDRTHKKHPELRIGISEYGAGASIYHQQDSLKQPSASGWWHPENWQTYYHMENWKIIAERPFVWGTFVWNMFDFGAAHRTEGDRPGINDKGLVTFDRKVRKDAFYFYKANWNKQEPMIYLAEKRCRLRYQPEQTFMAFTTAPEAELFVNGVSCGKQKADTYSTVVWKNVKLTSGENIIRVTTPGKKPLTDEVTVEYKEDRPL

gut microbiota [7] = test: Gut microbiota composition in C3Tag GEMM animals; type: in vivo, C3Tag GEMM mice; settings: mice with intact immune system
Description: Finally, we examined the effects of irinotecan and GUS inhibitor on the composition of the gut microbiota in […] triple-negative breast cancer GEMM animals. […] While the vehicle and Inh9 treatment groups appeared similar by PCoA1 analysis, both the irinotecan and IRI+Inh9 groups were similar to each other and distinct from the non-irinotecan mice (FIG. 22C). However, unlike the xenograft mice, irinotecan induces much smaller changes in the composition of the gut microbiota in these GEMM animals. […] These changes were not as dramatic as those observed with the athymic Sum149 xenograft mice presented above. […] In these GEMM animals, though, no change in Enterobacteriaceae or other Gammaproteobacteria families was observed; thus, the taxa that drive the increases in Proteobacteria are not known in these immune-competent mice.

E. eligens GUS = test: SN-38-G processing by purified GUS enzymes, with inhibitors; type: biochemical, Eubacterium eligens; settings: purified L1 enzyme, in vitro
[8] = tested on: Loop 2 (L2) enzyme from Bacteroides uniformis; test: as above; type: biochemical; settings: in vitro
C3-Tag mammary tumors = test: C3-Tag genetically engineered mouse model (GEMM) of triple-negative breast cancer
E. coli GUS [9] = molecular target: T1, E. coli GUS; type: biochemical; settings: purified L1 enzyme, in vitro
gut microbial enzymes = test: SN-38-G reactivation in fimo samples after treatment of FVB mice; type: in vivo
Method: The FVB mice were treated with irinotecan, the Inh9, or both irinotecan and Inh9, and it was determined how these treatments affected SN-38-G reactivation in fimo samples collected after 24 hours. […] A similar study was conducted in which samples were collected at 120 hours; at this five-day timepoint, no difference was found between the four treatment groups (data not shown).

SUM149 cells = test: SUM149 triple negative breast cancer xenograft in athymic nude mice
[10] = Inh9 co-treatment with irinotecan, 24 hours
[11] = irinotecan plus Inh9 vs irinotecan alone, 120 hours
[12] = irinotecan and Inh9 vs irinotecan alone

Sequence of C. perfringens GUS (Q8XP19 whole entry, looked up): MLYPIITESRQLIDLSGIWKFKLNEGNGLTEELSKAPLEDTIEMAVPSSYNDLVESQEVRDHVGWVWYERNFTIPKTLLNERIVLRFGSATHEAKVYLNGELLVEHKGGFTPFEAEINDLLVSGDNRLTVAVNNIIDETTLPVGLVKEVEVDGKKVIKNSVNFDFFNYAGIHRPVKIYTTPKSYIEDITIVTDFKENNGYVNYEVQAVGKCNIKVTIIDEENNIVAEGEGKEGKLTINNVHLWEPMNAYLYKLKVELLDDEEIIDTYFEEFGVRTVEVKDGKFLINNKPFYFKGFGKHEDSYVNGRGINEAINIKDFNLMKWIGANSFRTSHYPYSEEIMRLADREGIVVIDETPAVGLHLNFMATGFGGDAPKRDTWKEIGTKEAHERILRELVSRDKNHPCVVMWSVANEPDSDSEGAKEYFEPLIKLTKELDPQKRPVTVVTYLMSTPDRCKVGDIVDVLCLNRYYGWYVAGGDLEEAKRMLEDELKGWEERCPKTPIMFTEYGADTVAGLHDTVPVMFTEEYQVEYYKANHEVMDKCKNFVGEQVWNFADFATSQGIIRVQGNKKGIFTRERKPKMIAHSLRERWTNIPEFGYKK

## C1CCc2c(c(N3CCOCC3)nc3sc4c(N5CCNCC5)nnnc4c23)C1 [Inh9]
C. perfringens GUS
  inhibition of SN-38-G processing (apparent kcat): efficiently reduced
E. coli GUS [1]
  IC50: 380 nM
[2]
  inhibiting GUS-mediated reactivation of SN-38-G in vitro: superior to Inh1
[3]; [10]
  acute toxicity after single IRI injection: modestly reduces
  apoptotic cells per crypt: modest protection
[3]; Inh9 co-treatment with irinotecan, 120 hours
  apoptotic cells per crypt: modest protection
[3]; between treatment groups, 24 hours
  numbers of proliferative cells in the GI tract (BrdU): no change
[3]; co-treatment of irinotecan with Inh9, 120 hours
  number of proliferative cells per crypt in ileum, proximal colon and distal colon: significantly increased
[3]; [11]
  body weight or spleen mass: no changes
  hematocrit: significant increase
S. agalactiae GUS
  inhibition of SN-38-G processing (apparent kcat): efficiently reduced
[4]; Inh9 at 50 and 100 μM
  SN-38-G reactivation by cecal contents: dose-dependent; also recorded: significantly reduce
[4]; cecum, proximal and distal colon samples, comparison of inhibitors
  reducing SN-38-G processing in fimo: superior to Inh1
Gut microbiota [5]; GUS inhibitor alone
  reduction of the levels of Proteobacteria compared to vehicle: more than 10 fold
Gut microbiota [5]; IRI+Inh9
  species diversity, Chao1 richness: maintained species diversity
Gut microbiota [5]; irinotecan and Inh9
  Bacteroidetes in lumenal contents, phylum level: 42%
  Firmicutes in lumenal contents, phylum level: 43%
  Proteobacteria in lumenal contents, phylum level: 13%
Gut microbiota [5]; single agent
  Proteobacteria in lumenal contents, phylum level: 0.3%
  species diversity, Chao1 richness: uniformly maximized species richness
[6]
  inhibition of SN-38-G processing: did not inhibit
Gut microbiota [7]
  composition of the gut microbiota: does not change
E. eligens GUS
  inhibition of SN-38-G processing (apparent kcat): efficiently reduced
[8]
  inhibition of SN-38-G processing: did not inhibit
C3-Tag mammary tumors; IRI+Inh9
  colon tissue, H&E staining: maintained a properly assembled colonic glandular structure
  day to which the study could continue: 49 days
  primary tumor as share of body weight: below 1%
  primary tumor mass upon sacrifice: less than 100 mg
  time some animals remained diarrhea-free: 42 days
C3-Tag mammary tumors; IRI+Inh9, after the first 21 days
  body weight over the course of the study: rebounded and recovered their lost weight
C3-Tag mammary tumors; IRI+Inh9 vs IRI
  survival longer than IRI (Kaplan-Meier): 43%
C3-Tag mammary tumors; IRI+Inh9 vs IRI alone
  number of doses of irinotecan received: significantly higher number of IRI doses; also recorded: more doses of irinotecan
C3-Tag mammary tumors; IRI+Inh9 vs Veh and Inh9
  survival longer than Veh and Inh9 (Kaplan-Meier): 29%
C3-Tag mammary tumors; IRI+Inh9 vs irinotecan alone
  diarrhea: significantly reduced diarrhea
C3-Tag mammary tumors; Inh9 alone
  diarrhea: did not develop diarrhea
C3-Tag mammary tumors; Inh9 alone (as vehicle)
  time followed until tumor size necessitated euthanasia: 70 to 80 days
C3-Tag mammary tumors; Inh9 co-treatment
  extension of overall survival of irinotecan-treated mice: 14 days
C3-Tag mammary tumors; between treatment groups
  number of tumors observed in the animals: did not differ
C3-Tag mammary tumors; irinotecan plus GUS inhibition
  tumor volumes measured during the study: significantly smaller tumors
C3-Tag mammary tumors; single agent
  body weight over the course of the study: gained weight
  colon tissue, H&E staining: healthy colonic histology
  primary tumor as share of body weight: more than 5%
  primary tumor mass upon sacrifice: 1.5 g
  tumor volumes measured during the study: reduced tumor volumes
C3-Tag mammary tumors; with Inh9
  tumor number and relative mass (FIG. 9): significant reduction
E. coli GUS [9]
  inhibition of SN-38-G processing (apparent kcat): efficiently reduced
Gut microbial enzymes; Inh9 plus irinotecan compared to irinotecan alone, 24 hours
  level of SN-38-G reactivation by in fimo samples: significantly reduced
Gut microbial enzymes; samples collected at 120 hours
  effects on SN-38-G reactivation by in fimo samples: no longer detected
Gut microbial enzymes; single agent, samples collected after 24 hours
  SN-38-G processing activity in the mouse cecum (in fimo samples): did not alter
SUM149 cells; Inh9 with irinotecan
  post-sacrifice colon histological examination: marked protection
SUM149 cells; [12]
  diarrhea: significantly less diarrhea
  irinotecan-induced weight loss / body weight: significant improvement; also recorded: significantly protected
  survival: slightly improved overall survival; also recorded: trended toward living longer
SUM149 cells; irinotecan-plus-Inh9
  terminal tumor masses: significantly reduced
SUM149 cells; irinotecan-plus-Inh9 compared to vehicle and Inh9 cohorts
  tumor volumes: significantly reduced
